How the values were obtained:
Conditions in all cases: mouse, in vivo
[1] = Compound was tested for its toxicity after oral administration to mice in experiment 1
[2] = Compound was tested for its toxicity after intravenous administration in mice
[3] = Compound was tested for its toxicity after oral administration to mice in experiment 2
[4] = Compound was tested for its toxicity after oral administration in mice
[5] = Compound was tested for its toxicity after intravenous administration to mice in experiment 1
[6] = Compound was tested for its toxicity after intravenous administration to mice in experiment 2
[7] = The activity was measured in mice after oral administration of the compound; type: ADME
[8] = Compound was tested for its toxicity after intravenous administration to mice

Compound	LD50 [1] [mg/kg]	LD50 [3] [mg/kg]	LD50 [5] [mg/kg]	LD50 [6] [mg/kg]	also measured
O=C(O)C1CCc2cc(C3CCCCC3)c(Cl)cc21 (stereo unspecified)	41	252			LD50 [2]: 34 mg/kg
CCCCCC(O)C1C(=O)OC(C)C(O)/C=C/C=C/C=C/C=C/C=C(\C)C(O)CC(O)CC(O)CC(O)CC(O)CC(O)CC1O (stereo unspecified)					LD50 [4]: 18 mg/kg; LD50 [2]: 5 mg/kg
CC(C)(C)NCC(O)COc1cccc2c1CCCC2=O (single isomer, unassigned) [LEVOBUNOLOL]	700	798	25	37.7	
CCCC(=O)Nc1ccc(OCC(O)CNC(C)C)c(C(C)=O)c1 (stereo unspecified) [ACEBUTOLOL]			76	82.2	
C=CCc1ccccc1OCC(O)CNC(C)C (stereo unspecified) [ALPRENOLOL]	278	415			
CC(C)(C)NCC(O)CSc1nc(-c2ccc(C(N)=O)s2)cs1 (stereo unspecified) [AROTINOLOL]				57.8	
CC(=O)c1cc2cccc(OCC(O)CNC(C)C)c2o1 (stereo unspecified) [BEFUNOLOL]			102	75.1	
CC1=C(/C=C/C(C)=C/C=C/C(C)=C/C=C/C=C(C)/C=C/C=C(C)/C=C/C2=C(C)CCCC2(C)C)C(C)(C)CCC1 [BETA CAROTENE]					LD50 [4]: 26 mg/kg; LD50 [7]: 6750 mg/kg
CC(C)NCC(O)COc1ccc(CCOCC2CC2)cc1 (stereo unspecified) [BETAXOLOL]	944	625	37	38	
Cc1cc2c(OCC(CNC(C)(C)C)OC(=O)c3ccccc3)cccc2[nH]1 (stereo unspecified) [BOPINDOLOL]			17	15.9	
Cc1ccc(OCC(O)CNC(C)(C)C)c2oc(=O)ccc12 (stereo unspecified) [BUCUMOLOL]	676	828	33.1	46.8	
CC(C)(C)NCC(O)COc1ccccc1OCC1CCCO1 (stereo unspecified) [BUFETOLOL]	409	238			
CCc1cccc2cc(C(O)CNC(C)(C)C)oc12 (stereo unspecified) [BUFURALOL]	117	273	29.7	25.9	
CC(C)(C)NCC(O)COc1ccccc1C#N (stereo unspecified) [BUNITROLOL]	1350	998			
CCC(C)NCC(O)c1ccc2c(c1)CCCC2 (stereo unspecified) [BUTIDRINE]	235	212	20.2	24.6	
CC(C)(C)NCC(O)COc1cccc2c1CCC(=O)N2 (stereo unspecified) [CARTEOLOL]	810	656		39.4	
CCN(CC)C(=O)Nc1ccc(OCC(O)CNC(C)(C)C)c(C(C)=O)c1 (stereo unspecified) [CELIPROLOL]	1830	1770	56.2	42.8	
CC(C)NCC(O)COc1cccc2c1C=CC2 (stereo unspecified) [INDENOLOL]			26	32.4	
CC(CCc1ccccc1)NCC(O)c1ccc(O)c(C(N)=O)c1 (stereo unspecified) [LABETALOL]	1450	1370	47	51.1	
CC(=O)Oc1c(C)cc(OCC(O)CNC(C)C)c(C)c1C (stereo unspecified) [METIPRANOLOL]			31	38.8	
COCCc1ccc(OCC(O)CNC(C)C)cc1 (stereo unspecified) [METOPROLOL]	2090	3060	118	292	
CC(C)(C)NCC(O)COc1cccc2c1C[C@H](O)[C@H](O)C2 (stereo partly specified) [NADOLOL]	4500	2710			
N/C(CC(O)COc1cccc2ccccc12)=N/O (stereo unspecified) [NADOXOLOL]	1000	710	180	119	
CC(C)(Sc1cc(C(C)(C)C)c(O)c(C(C)(C)C)c1)Sc1cc(C(C)(C)C)c(O)c(C(C)(C)C)c1 [PROBUCOL]	> 5000				LD50 [8]: 25 mg/kg
CC(C)NCC(O)c1ccc2ccccc2c1 (stereo unspecified) [PRONETALOL]	512	486	46	38	
CC(C)NCC(O)c1ccc(NS(C)(=O)=O)cc1 (stereo unspecified) [SOTALOL]	2600	2630			
CC(C)(C)NCC(O)COc1ccc(NC(=O)NC2CCCCC2)cc1 (stereo unspecified) [TALINOLOL]	593	1050	25	25.8	
CC(C)(C)NCC(O)COc1cccc2c1SCCC2 (stereo unspecified) [TERTATOLOL]			37	34.1	
CC(C)(C)NC[C@H](O)COc1nsnc1N1CCOCC1 [TIMOLOL]	1190	1460			

Source: ChEMBL document CHEMBL1129855, “Molecular connectivity to find -blockers with low toxicity” (Bioorg Med Chem Lett, 1997)
